2 compounds from publication PMC5346723, “Delivery of a peptide-drug conjugate targeting the blood brain barrier improved the efficacy of paclitaxel against glioma” (Oncotarget, 2016) can be followed below.

Peptide text beside a SMILES is read from it. * marks the point of attachment. Biotin = O=C1N[C@H]2[C@H](CS[C@H]2CCCCC(=O)*)N1

For one series, the system named is U87 glioblastoma cells. Briefly: MTT assay. Particulars: 1 × 10^5 cells/100 μl/well, 96-well, 37°C, sample concentration for the table not stated (0.1-2.5 mg/mL tested), absorbance 570 nm. The class given is cell-based, human. As to the method:
The cytotoxicity of ANG, ANG-TAT, ANG-PTX and ANG-TAT-PTX were determined using the 3-[4,5-dimethylthiazol-2-yl]-2,5-diphenyl tetrazolium bromide (MTT) assay. Human U87 glioblastoma cell (1×10^5 cells/100 μl per well) were cultured in 96-well plates at 37°C in 5% CO2. Aqueous solutions of the samples were dissolved in culture medium at final concentrations of 0.1, 0.5, 1, and 2.5 mg/mL. After incubation for 24 and 48 hours, the MTT solution (in 2 mg/mL phosphate-buffered saline) was added, the plates were incubated for 4 hours, and the cells were lysed with 50% N, N-dimethylformamide containing 20% sodium dodecyl sulfate (pH 4.5). Absorbance at 570 nm was measured for each well using a SpectraMax M5 (Molecular Devices, Sunnyvale, CA USA). The absorbance of control cells was taken as 100% viability, and the values of the treated cells were calculated as a percentage of the control.
Background: Tetrazolium assays rely on reduction of a dye to a coloured formazan, in cell work by metabolically active cells.

In series [1] the test system is U87 glioblastoma brain tumor tissue. As to the kind of experiment: Brain extraction of biotin labelled peptides after tail vein injection in mice with intracerebral U87 tumors. The class given is in vivo, CD-1 nude mice. Particulars: 50 μg/kg, brain removed 15 min after injection, tumor implanted right hemisphere, biotin quantitative kit, P<0.05. As to the method: Biotin ANG and biotin ANG-TAT (50 μg/kg body weight) were injected into the tail vein of CD-1 nude mice carrying intracerebral implants of U87 glioblastoma cells. Fifteen minutes after injection the mice were killed, and the brains were surgically removed. The brain tissues were dissected and maintained in cold saline containing protease inhibitors until processing. To compare normal and tumor brain tissue, the right hemisphere (implanted hemisphere) was compared with the left hemisphere (non-implanted hemisphere). To extract biotin ANG and biotin ANG-TAT, tissues were mechanically homogenized in homogenization buffer (0.1 M Tris–HCl, pH 5.0, 50 mM sucrose, 0.003% Tween-80, and protease inhibitor cocktail) on ice. Acetonitrile (ACN) 100% was added to a final concentration of 65% (v/v). The mixture was stirred for 10 min in a cold room and then centrifuged at 3000 r.p.m. for 5 min. Acetonitrile supernatants were collected and dried in a rotative evaporator and finally freeze-dried. The concentration of biotin ANG and biotin ANG-TAT in the samples was determined using biotin quantitative kit from Elabsciences, Inc (Shanghai, China).
The U87 cell line was used to assess peptide uptake in an animal model of glioma. Cells suspension were prepared at a final concentration of 1×10^4 cells/ml in PBS and kept on ice until injection. […]

Consider `CC(=O)O[C@H]1C(=O)[C@@]2(C)[C@H]([C@H](OC(=O)c3ccccc3)[C@]3(O)C[C@H](OC(=O)[C@H](O)[C@@H](NC(=O)c4ccccc4)c4ccccc4)C(C)=C1C3(C)C)[C@]1(OC(C)=O)CO[C@@H]1C[C@@H]2O` [Free PTX, Paclitaxel], for which, in the series on U87 glioblastoma cells (5% CO2, 24 h incubation), the “MTT assay of ANG-TAT-PTX in tumor cells, 24h” value amounted to 20.53±2.21. In addition, in the series with U87 glioblastoma cells (5% CO2, 48 h incubation), the “MTT assay of ANG-TAT-PTX in tumor cells, 48h” value was 42.36±2.35. With `C[C@@H](O)[C@H](N)C(=O)N[C@@H](Cc1ccccc1)C(=O)N[C@@H](Cc1ccccc1)C(=O)N[C@@H](Cc1ccc(O)cc1)C(=O)NCC(=O)NCC(=O)N[C@@H](CO)C(=O)N[C@@H](CCCNC(=N)N)C(=O)NCC(=O)N[C@@H](CCCCN)C(=O)N[C@@H](CCCNC(=N)N)C(=O)N[C@@H](CC(N)=O)C(=O)N[C@@H](CC(N)=O)C(=O)N[C@@H](Cc1ccccc1)C(=O)N[C@@H](CCCCNC(=O)CCCC[C@@H]1SC[C@@H]2NC(=O)N[C@@H]21)C(=O)N[C@H](C(=O)N[C@@H](CCC(=O)O)C(=O)N[C@@H](CCC(=O)O)C(=O)N[C@@H](Cc1ccc(O)cc1)C(=O)NCC(=O)N[C@@H](CCCNC(=N)N)C(=O)N[C@@H](CCCCN)C(=O)N[C@@H](CCCCN)C(=O)N[C@@H](CCCNC(=N)N)C(=O)N[C@@H](CCCNC(=N)N)C(=O)N[C@@H](CCC(N)=O)C(=O)N[C@@H](CCCNC(=N)N)C(=O)N[C@@H](CCCNC(=N)N)C(=O)N[C@@H](CCCNC(=N)N)C(=O)N1CCC[C@H]1C(=O)N1CCC[C@H]1C(=O)N[C@@H](CCC(N)=O)C(=O)N[C@@H](CCC(N)=O)C(=O)O)[C@@H](C)O` [biotin ANG-TAT] (H-TFFYGGSRGKRNNFK(Biotin)TEEYGRKKRRQRRRPPQQ-OH), the “Amount extracted from tumor tissue relative to biotin ANG” value in series [1] was found to be 1.8 fold.
